# Legend:
# barnyardgrass [1] = assay: Test C preemergence; type: in vivo, Echinochloa crusgalli; settings: for Plant response rating, Barnyardgrass: Preemergence; for Barnyardgrass plant response rating: preemergence
# How it was run: (§1)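 Test material, in non-phytotoxic solvent with surfactant, was sprayed on the soil directly after seeding (preemergence) or on young plants of 2–10 cm with one to two leaves (postemergence). Greenhouse, 10 days; 0–100 visual control scale.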
# blackgrass [2] = assay: Test C preemergence; type: in vivo, Alopecurus myosuroides; settings: for Plant response rating, Blackgrass: Preemergence; for Blackgrass plant response rating: preemergence
# How it was run: as §1
# corn [3] = assay: Test C preemergence; type: in vivo, Zea mays; settings: for Plant response rating, Corn: Preemergence; for Corn plant response rating: preemergence
# How it was run: as §1
# green foxtail [4] = assay: Test C preemergence; type: in vivo, Setaria viridis; settings: for Plant response rating, Foxtail, Green: Preemergence; for Foxtail, Green plant response rating: preemergence
# How it was run: as §1
# kochia [5] = assay: Test C preemergence; type: in vivo, Bassia scoparia; settings: for Plant response rating, Kochia: Preemergence; for Kochia plant response rating: preemergence
# How it was run: as §1
# oat, wild [6] = assay: Test C preemergence; type: in vivo, Avena fatua; settings: for Plant response rating, Oat, Wild: Preemergence; for Oat, Wild plant response rating: preemergence
# How it was run: as §1
# pigweed, palmer [7] = assay: Test C preemergence; type: in vivo, Amaranthus palmeri; settings: for Plant response rating, Pigweed, Palmer: Preemergence; for Pigweed, Palmer plant response rating: preemergence
# How it was run: as §1
# ragweed [8] = assay: Test C preemergence; type: in vivo, Ambrosia artemisiifolia; settings: for Plant response rating, Ragweed: Preemergence; for Ragweed plant response rating: preemergence
# How it was run: as §1
# ryegrass, Italian [9] = assay: Test C preemergence; type: in vivo, Lolium multiflorum; settings: for Plant response rating, Ryegrass, Italian: Preemergence; for Ryegrass, Italian plant response rating: preemergence
# How it was run: as §1
# soybean [10] = assay: Test C preemergence; type: in vivo, Glycine max; settings: for Plant response rating, Soybean: Preemergence; for Soybean plant response rating: preemergence
# How it was run: as §1
# wheat [11] = assay: Test C preemergence; type: in vivo, Triticum aestivum; settings: for Plant response rating, Wheat: Preemergence; for Wheat plant response rating: preemergence
# How it was run: as §1
# barnyardgrass [12] = assay: Test C postemergence; type: in vivo, Echinochloa crusgalli; settings: 10 days
# How it was run: as §1
# blackgrass [13] = assay: Test C postemergence; type: in vivo, Alopecurus myosuroides; settings: 10 days
# How it was run: as §1
# corn [14] = assay: Test C postemergence; type: in vivo, Zea mays; settings: 10 days
# How it was run: as §1
# green foxtail [15] = assay: Test C postemergence; type: in vivo, Setaria viridis; settings: 10 days
# How it was run: as §1
# kochia [16] = assay: Test C postemergence; type: in vivo, Bassia scoparia; settings: 10 days
# How it was run: as §1
# oat, wild [17] = assay: Test C postemergence; type: in vivo, Avena fatua; settings: 10 days
# How it was run: as §1
# pigweed, palmer [18] = assay: Test C postemergence; type: in vivo, Amaranthus palmeri; settings: 10 days
# How it was run: as §1
# ragweed [19] = assay: Test C postemergence; type: in vivo, Ambrosia artemisiifolia; settings: 10 days
# How it was run: as §1
# ryegrass, Italian [20] = assay: Test C postemergence; type: in vivo, Lolium multiflorum; settings: 10 days
# How it was run: as §1
# soybean [21] = assay: Test C postemergence; type: in vivo, Glycine max; settings: 10 days
# How it was run: as §1
# wheat [22] = assay: Test C postemergence; type: in vivo, Triticum aestivum; settings: 10 days
# How it was run: as §1
# galium = assay: Test C postemergence; type: in vivo, Galium aparine; settings: 10 days
# How it was run: as §1
# horseweed = assay: Test C postemergence; type: in vivo, Erigeron canadensis; settings: 10 days
# How it was run: as §1
# barnyardgrass [23] = assay: Test D flooded paddy test; type: in vivo, Echinochloa crus-galli; settings: 250 g ai/ha, applied to paddy water, visual rating after 13 to 14 days, scale 0 to 100 (0 no effect, 100 complete control)
# How it was run: (§2)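 Plants grown to the 2-leaf stage; pots flooded to 3 cm above soil at treatment and held at that depth throughout. Test compounds applied directly to the paddy water. After 13 to 14 days in a greenhouse, response was rated visually versus controls on a 0 (no effect) to 100 (complete control) scale.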
# ducksalad = assay: Test D flooded paddy test; type: in vivo, Heteranthera limosa; settings: 250 g ai/ha, applied to paddy water, visual rating after 13 to 14 days, scale 0 to 100 (0 no effect, 100 complete control)
# How it was run: as §2
# rice = assay: Test D flooded paddy test; type: in vivo, Oryza sativa; settings: 250 g ai/ha, applied to paddy water, visual rating after 13 to 14 days, scale 0 to 100 (0 no effect, 100 complete control)
# How it was run: as §2
# sedge, umbrella = assay: Test D flooded paddy test; type: in vivo, Cyperus difformis; settings: 250 g ai/ha, applied to paddy water, visual rating after 13 to 14 days, scale 0 to 100 (0 no effect, 100 complete control)
# How it was run: as §2
# [24] = 500 g ai/ha, visual rating after 10 days, 0 to 100 scale (0 no effect, 100 complete control)
# [25] = Test C, 125 g ai/ha, 0 to 100 scale (0 no effect, 100 complete control)
# [26] = 125 g ai/ha, postemergence, 0 to 100 scale, 0 no effect, 100 complete control
# [27] = Postemergence, 500 g ai/ha, visual 0 to 100 scale (0 no effect, 100 complete control)
# [28] = 500 g ai/ha, 0 to 100 scale (0 no effect, 100 complete control)
# [29] = 125 g ai/ha, 0 to 100 scale, 0 no effect, 100 complete control
# [30] = 500 g ai/ha, postemergence, 0 to 100 scale (0 no effect, 100 complete control)
# [31] = Postemergence, 125 g ai/ha, 0 to 100 scale (0 no effect, 100 complete control)
smiles,measurement,setting,value
CC(C)c1ncn(-c2cc3c(c(C(=O)N4C[C@H](C)Oc5c(Cl)cccc54)c2)CCC3)n1 [Compound 174],"Plant response rating, Barnyardgrass",barnyardgrass [1]; [24],100
same,Barnyardgrass plant response rating,barnyardgrass [1]; [25],80
same,"Plant response rating, Blackgrass",blackgrass [2]; [24],80
same,Blackgrass plant response rating,blackgrass [2]; [25],70
same,"Plant response rating, Corn",corn [3]; [24],50
same,Corn plant response rating,corn [3]; [25],10
same,"Plant response rating, Foxtail, Green",green foxtail [4]; [24],100
same,"Foxtail, Green plant response rating",green foxtail [4]; [25],100
same,"Plant response rating, Kochia",kochia [5]; [24],90
same,Kochia plant response rating,kochia [5]; [25],70
same,"Plant response rating, Oat, Wild","oat, wild [6]; [24]",80
same,"Oat, Wild plant response rating","oat, wild [6]; [25]",20
same,"Plant response rating, Pigweed, Palmer","pigweed, palmer [7]; [24]",100
same,"Pigweed, Palmer plant response rating","pigweed, palmer [7]; [25]",100
same,"Plant response rating, Ragweed",ragweed [8]; [24],10
same,Ragweed plant response rating,ragweed [8]; [25],0
same,"Plant response rating, Ryegrass, Italian","ryegrass, Italian [9]; [24]",90
same,"Ryegrass, Italian plant response rating","ryegrass, Italian [9]; [25]",80
same,"Plant response rating, Soybean",soybean [10]; [24],100
same,Soybean plant response rating,soybean [10]; [25],70
same,"Plant response rating, Wheat",wheat [11]; [24],10
same,Wheat plant response rating,wheat [11]; [25],0
same,"Plant response rating, Barnyardgrass",barnyardgrass [12]; [26],50
same,"Plant response rating, Barnyardgrass",barnyardgrass [12]; [27],60
same,"Plant response rating, Blackgrass",blackgrass [13]; [26],60
same,"Plant response rating, Blackgrass",blackgrass [13]; [27],90
same,"Plant response rating, Corn",corn [14]; [26],70
same,"Plant response rating, Corn",corn [14]; [27],80
same,"Plant response rating, Foxtail, Green",green foxtail [15]; [26],70
same,"Plant response rating, Foxtail, Green",green foxtail [15]; [27],90
same,"Plant response rating, Kochia",kochia [16]; [26],90
same,"Plant response rating, Kochia",kochia [16]; [27],100
same,"Plant response rating, Oat, Wild","oat, wild [17]; [26]",50
same,"Plant response rating, Oat, Wild","oat, wild [17]; [27]",70
same,"Plant response rating, Pigweed, Palmer","pigweed, palmer [18]; [26]",90
same,"Plant response rating, Pigweed, Palmer","pigweed, palmer [18]; [27]",100
same,"Plant response rating, Ragweed",ragweed [19]; [26],60
same,"Plant response rating, Ragweed",ragweed [19]; [27],70
same,"Plant response rating, Ryegrass, Italian","ryegrass, Italian [20]; [26]",50
same,"Plant response rating, Ryegrass, Italian","ryegrass, Italian [20]; [27]",70
same,"Plant response rating, Soybean",soybean [21]; [26],100
same,"Plant response rating, Soybean",soybean [21]; [27],100
same,"Plant response rating, Wheat",wheat [22]; [26],20
same,"Plant response rating, Wheat",wheat [22]; [27],40
same,"Plant response rating, Galium",galium; [26],100
same,"Plant response rating, Galium",galium; [27],100
same,"Plant response rating, Horseweed",horseweed; [26],0
same,"Plant response rating, Horseweed",horseweed; [27],30
same,"Plant response rating, Barnyardgrass (Flood)",barnyardgrass [23],0
same,"Plant response rating, Ducksalad (Flood)",ducksalad,0
same,"Plant response rating, Rice (Flood)",rice,0
same,"Plant response rating, Sedge, Umbrella (Flood)","sedge, umbrella",0
CCOC[C@H]1CN(C(=O)c2cc(-n3cnc(C(C)C)n3)ccc2OC)c2cccc(Cl)c2O1 [Compound 341],Barnyardgrass plant response rating,barnyardgrass [1]; [28],100
same,"Plant response rating, Barnyardgrass",barnyardgrass [1]; [29],90
same,Blackgrass plant response rating,blackgrass [2]; [28],80
same,"Plant response rating, Blackgrass",blackgrass [2]; [29],20
same,Corn plant response rating,corn [3]; [28],30
same,"Plant response rating, Corn",corn [3]; [29],20
same,"Foxtail, Green plant response rating",green foxtail [4]; [28],100
same,"Plant response rating, Foxtail, Green",green foxtail [4]; [29],100
same,Kochia plant response rating,kochia [5]; [28],100
same,"Plant response rating, Kochia",kochia [5]; [29],100
same,"Oat, Wild plant response rating","oat, wild [6]; [28]",80
same,"Plant response rating, Oat, Wild","oat, wild [6]; [29]",50
same,"Pigweed, Palmer plant response rating","pigweed, palmer [7]; [28]",100
same,"Plant response rating, Pigweed, Palmer","pigweed, palmer [7]; [29]",100
same,Ragweed plant response rating,ragweed [8]; [28],100
same,"Plant response rating, Ragweed",ragweed [8]; [29],80
same,"Ryegrass, Italian plant response rating","ryegrass, Italian [9]; [28]",100
same,"Plant response rating, Ryegrass, Italian","ryegrass, Italian [9]; [29]",80
same,Soybean plant response rating,soybean [10]; [28],60
same,"Plant response rating, Soybean",soybean [10]; [29],100
same,Wheat plant response rating,wheat [11]; [28],30
same,"Plant response rating, Wheat",wheat [11]; [29],30
same,"Plant response rating, Barnyardgrass",barnyardgrass [12]; [30],70
same,"Plant response rating, Barnyardgrass",barnyardgrass [12]; [31],20
same,"Plant response rating, Blackgrass",blackgrass [13]; [30],50
same,"Plant response rating, Blackgrass",blackgrass [13]; [31],10
same,"Plant response rating, Corn",corn [14]; [30],80
same,"Plant response rating, Corn",corn [14]; [31],0
same,"Plant response rating, Foxtail, Green",green foxtail [15]; [30],70
same,"Plant response rating, Foxtail, Green",green foxtail [15]; [31],30
same,"Plant response rating, Kochia",kochia [16]; [30],90
same,"Plant response rating, Kochia",kochia [16]; [31],80
same,"Plant response rating, Oat, Wild","oat, wild [17]; [30]",20
same,"Plant response rating, Oat, Wild","oat, wild [17]; [31]",10
same,"Plant response rating, Pigweed, Palmer","pigweed, palmer [18]; [30]",100
same,"Plant response rating, Pigweed, Palmer","pigweed, palmer [18]; [31]",80
same,"Plant response rating, Ragweed",ragweed [19]; [30],90
same,"Plant response rating, Ragweed",ragweed [19]; [31],60
same,"Plant response rating, Ryegrass, Italian","ryegrass, Italian [20]; [30]",60
same,"Plant response rating, Ryegrass, Italian","ryegrass, Italian [20]; [31]",30
same,"Plant response rating, Soybean",soybean [21]; [30],100
same,"Plant response rating, Soybean",soybean [21]; [31],100
same,"Plant response rating, Wheat",wheat [22]; [30],20
same,"Plant response rating, Wheat",wheat [22]; [31],10
same,"Plant response rating, Galium",galium; [30],100
same,"Plant response rating, Galium",galium; [31],90
same,"Plant response rating, Horseweed",horseweed; [30],60
same,"Plant response rating, Horseweed",horseweed; [31],60
same,"Plant response rating, Barnyardgrass (Flood)",barnyardgrass [23],25
same,"Plant response rating, Ducksalad (Flood)",ducksalad,70
same,"Plant response rating, Rice (Flood)",rice,0
same,"Plant response rating, Sedge, Umbrella (Flood)","sedge, umbrella",90

# From patent US20260262643A1, “HERBICIDAL BENZOXAZINES” (FMC CORPORATION, priority 2022, published 2026)
